Experimental data: patent US8796313B2, “Substituted dihydroisoindolones as allosteric modulators of glucokinase” (Janssen Pharmaceutica N.V., priority 2005, dated 2014)

Columns and labels:
[1] = biological target: T1, human liver Glucokinase (GK) (Homo sapiens, UniProt P35557); assay: Glucokinase enzyme assay, liver GK; format: biochemical; details: for EC50: concentration that produces 50% activation above vehicle control; for activation at 50 µM: increase in GK activity above vehicle control, compound 50 μM, 12 mM glucose; for EC100%: concentration that produces 100% activation above vehicle control
T1 construct: His6; made in house; host or cells: Escherichia coli
T1 sequence (P35557 1-466 isoform P35557-2): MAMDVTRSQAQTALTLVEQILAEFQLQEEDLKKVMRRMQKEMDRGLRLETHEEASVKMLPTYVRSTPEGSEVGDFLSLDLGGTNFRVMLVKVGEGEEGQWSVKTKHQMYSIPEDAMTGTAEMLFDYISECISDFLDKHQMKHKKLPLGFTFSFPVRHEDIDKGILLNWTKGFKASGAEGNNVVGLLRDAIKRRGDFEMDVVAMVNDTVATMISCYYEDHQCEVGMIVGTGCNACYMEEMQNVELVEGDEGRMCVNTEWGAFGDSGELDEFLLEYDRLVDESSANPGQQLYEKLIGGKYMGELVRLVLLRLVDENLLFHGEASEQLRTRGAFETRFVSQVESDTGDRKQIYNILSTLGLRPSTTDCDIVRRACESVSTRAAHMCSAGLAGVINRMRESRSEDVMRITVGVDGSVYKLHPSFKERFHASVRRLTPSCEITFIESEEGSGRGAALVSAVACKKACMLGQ
Text: (§1) An enzymatic Glucokinase (GK) assay using purified recombinant human liver/pancreas enzyme was used to evaluate the effects of potential small molecule modulators.
(§2) In this assay, GK catalyzes glucose phosphorylation in the presence of ATP. The product of this reaction, glucose-6-phosphate, was then oxidized by an excess of glucose-6-phosphate dehydrogenase to produce gluconate-6-phosphate with concomitant reduction of nicotinamide adenine dinucleotide (NAD). […] Human GK (Liver/Pancreas) was expressed in Escherichia coli as a (His) 6-tagged fusion protein and was purified by metal chelate affinity chromatography. The assay was performed in a final incubation volume of 80 μl in a 96-well clear low UV absorption plates. The incubation mixture consisted of 25 mM HEPES, 2 mM MgSO4, 1 mM dithiothreotol (DTT), 1 mg/mL bovine serum albumin (BSA), 1 mM ATP, 1 mM NAD, and 12 mM glucose, 10 units per mL glucose-6-phosphate dehydrogenase, and +/−300 ng per mL GK. For determination of the affinity (Km) and Vmax, different concentrations of glucose ranging from 0.5 mM to 40 mM were used in the assay; see Grimsby, J., Sarabu, R.; Grippo, J. F.; et. al. Science 2003, 301, 370-373. Production of reduced NAD (Nicotinamide Adenine Dinucleotide) was measured as changes in absorption at 340 nm in 96-well plate reader (Envision model #2101 Multilabel Plate reader). % Activation @ 50 μM was calculated as the percentage increase in GK activity above the vehicle control with the effective concentration of the compound being 50 μM. EC50% (μM) was calculated as the effective concentration of the compound that produces 50% activation above the vehicle control, and EC100% (μM) was calculated as the effective concentration of the compound that produces 100% activation above the vehicle control.

[2] = biological target: T2, human pancreas Glucokinase (GK) (Homo sapiens, UniProt P35557); assay: Glucokinase enzyme assay, pancreas GK; format: biochemical
T2 construct: His6; made in house; host or cells: Escherichia coli
T2 sequence (P35557 1-465): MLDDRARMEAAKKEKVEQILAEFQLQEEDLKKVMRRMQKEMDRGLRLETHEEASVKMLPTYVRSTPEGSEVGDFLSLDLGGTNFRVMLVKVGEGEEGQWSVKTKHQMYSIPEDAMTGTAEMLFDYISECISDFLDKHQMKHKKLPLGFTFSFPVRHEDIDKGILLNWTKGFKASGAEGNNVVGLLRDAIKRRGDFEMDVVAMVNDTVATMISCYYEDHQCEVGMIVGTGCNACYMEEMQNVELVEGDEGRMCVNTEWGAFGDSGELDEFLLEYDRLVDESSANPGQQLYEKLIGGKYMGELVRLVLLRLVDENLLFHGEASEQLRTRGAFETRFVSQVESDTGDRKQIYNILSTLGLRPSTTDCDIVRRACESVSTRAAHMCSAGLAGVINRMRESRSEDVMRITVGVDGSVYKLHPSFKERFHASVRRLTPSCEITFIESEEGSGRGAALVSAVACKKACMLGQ
Text: as §1
as §2, with “Production of reduced NAD (Nicotinamide Adenine Dinucleotide) was measured as changes in absorption at 340 nm in 96-well plate reader (Envision model #2101 Multilabel Plate reader). % Activation @ 50 μM was calculated as the percentage increase in GK activity above the vehicle control with the effective concentration of the compound being 50 μM.” left out

Row | Compound | EC50 [1] | activation at 50 µM [1] | EC100% [1] | EC50 ([2]; concentration that produces 50% activation above vehicle control) | EC100% ([2]; concentration that produces 100% activation above vehicle control) | activation at 50 µM ([2]; increase in GK activity above vehicle control, compound 50 μM, 12 mM glucose)
1 | O=C(CCC1c2ccccc2C(=O)N1Cc1ccccc1)Nc1nccs1 (stereo not shown) [Compound 1, 3-(2-Benzyl-3-oxo-2,3-dihydro-1H-isoindol-1-yl)-N-thiazol-2-yl-propionamide] | 15000 nM | 46% | – | – | – | –
2 | COC(=O)c1ccc(NC(=O)CCC2c3ccccc3C(=O)N2Cc2ccccc2)nc1 (stereo not shown) [Compound 2, 6-[3-(2-Benzyl-3-oxo-2,3-dihydro-1H-isoindol-1-yl)-propionylamino]-nicotinic acid methyl ester] | 1290 nM | – | 8.39 µM | – | – | –
3 | O=C(CCC1c2ccccc2C(=O)N1Cc1ccccc1)Nc1ccccn1 (stereo not shown) [Compound 3, 3-(2-Benzyl-3-oxo-2,3-dihydro-1H-isoindol-1-yl)-N-pyridin-2-yl-propionamide] | 2520 nM | – | 8.78 µM | – | – | –
4 | O=C(NCCC1c2ccccc2C(=O)N1Cc1ccccc1)Nc1nccs1 (stereo not shown) [Compound 4, 1-[2-(2-Benzyl-3-oxo-2,3-dihydro-1H-isoindol-1-yl)-ethyl]-3-thiazol-2-yl-urea] | – | 15% | – | – | – | –
5 | O=C(CCC1c2ccccc2C(=O)N1Cc1ccccc1)Nc1ccc(C(=O)O)cn1 (stereo not shown) [Compound 5, 6-[3-(2-Benzyl-3-oxo-2,3-dihydro-1H-isoindol-1-yl)-propionylamino]-nicotinic acid] | 1900 nM | 138% | 8 µM | 2900 nM | 18 µM | 306%
